62 compounds from patent publication US8476197B2, “Aminopropenoates as fungicides” (priority 2009, dated 2013) can be followed below.

For orientation: Log P means a log measure of how a compound divides between an organic and an aqueous phase.

Marks after values point to notes of the source that are not given here.

The conditions of the first data set: pH 2.7.
Regarding `CCOC(=O)C(C#N)=C(NC(C)C1CCCO1)c1sccc1C(F)(F)F` (mixture of isomers) [Compound 172], the “Log P” value was 3.55^[a].
Turning to `COC(=O)C(C#N)=C(NC(C)C1CCCO1)c1sc(C)nc1C(F)(F)F` (mixture of isomers) [Compound 178], the “Log P” value is 1.97^[a].
As for `CCOC(=O)C(C#N)=C(NC(C)C1CCCO1)c1sccc1Br` (mixture of isomers) [Compound 186], the “Log P” value is 3.35^[a].
The same measure, in the same setting: the value for `CCOC(=O)C(C#N)=C(NC(C)c1ccc(Cl)s1)c1cccnc1Cl` (mixture of isomers) [Compound 281] was 3.8^[a]; that for `CCOC(=O)C(C#N)=C(NC(C)c1nc(C(C)C)no1)c1cccnc1Cl` (mixture of isomers) [Compound 282] was 3.2^[a]; that for `CCOC(=O)C(C#N)=C(NC(C)CN1CCCC1)c1cccnc1Cl` (mixture of isomers) [Compound 283] was 3.35^[a].
Consider `CCOC(=O)C(C#N)=C(NC(C)c1ccc(C(F)(F)F)cn1)c1cccnc1Cl` (mixture of isomers) [Compound 285], for which the “Log P” value was 3.5^[a].
Turning to `CCOC(=O)C(C#N)=C(NC(C)c1ncc(Br)cc1Cl)c1cccnc1Cl` (mixture of isomers) [Compound 287], the lipophilicity (Log P) was 3.9^[a].
In the case of `CCOC(=O)C(C#N)=C(NC(C)c1ncc(C(F)(F)F)cc1Cl)c1cccnc1Cl` (mixture of isomers) [Compound 288], the lipophilicity (Log P) was 3.9^[a].
The same measure, in the same setting: the value for `CCOC(=O)C(C#N)=C(NC(C)c1ccccn1)c1ccnc(Cl)c1Cl` (mixture of isomers) [Compound 289] was 3.04^[a]; that for `CCOC(=O)C(C#N)=C(NC(C)c1cscn1)c1ccnc(Cl)c1Cl` (mixture of isomers) [Compound 290] was 2.92^[a].
For the compound `CCOC(=O)C(C#N)=C(NC(C)c1nccs1)c1ccnc(Cl)c1Cl` (mixture of isomers) [Compound 291], the “Log P” value is 2.96^[a].
Same read-out and setting: the value for `CCOC(=O)C(C#N)=C(NC(C)c1ccccn1)c1cccnc1Cl` (mixture of isomers) [Compound 292] was 2.5^[a]; that for `CCOC(=O)C(C#N)=C(NC(C)Cc1nccs1)c1cccnc1Cl` (mixture of isomers) [Compound 294] was 2.4^[a]; that for `CCOC(=O)C(C#N)=C(NC(C)Cc1ccccn1)c1cccnc1Cl` (mixture of isomers) [Compound 295] was 1.82^[a].
Same read-out and setting: as for `CCOC(=O)C(C#N)=C(NC(C)Cc1cccnc1)c1cccnc1Cl` (mixture of isomers) [Compound 296], the figure is 1.57^[a]; as for `CCOC(=O)C(C#N)=C(NC(C)c1nccs1)c1ccncc1Br` (mixture of isomers) [Compound 297], 2.4^[a].
Still for that read-out and setting: the value for `CCOC(=O)C(C#N)=C(NC(C)c1cscn1)c1ccncc1Br` (mixture of isomers) [Compound 298] was 2.4^[a]; that for `CCOC(=O)C(C#N)=C(NC(C)c1ccccn1)c1ccncc1Br` (mixture of isomers) [Compound 299] was 2.5^[a].
For the compound `CCOC(=O)C(C#N)=C(NC(C)c1ccccn1)c1ccncc1F` (mixture of isomers) [Compound 300], the “Log P” value was 2.28^[a].
On to `CCOC(=O)C(C#N)=C(NC(C)c1cscn1)c1ccncc1F` (mixture of isomers) [Compound 301], for which the lipophilicity (Log P) was 2.22^[a].
Same read-out and setting: as for `CCOC(=O)C(C#N)=C(NC(C)Cc1nccs1)c1ccncc1F` (mixture of isomers) [Compound 302], the figure is 2.19^[a].
Regarding `CCOC(=O)C(C#N)=C(NC(C)c1cscn1)c1ccncc1C(F)(F)F` (mixture of isomers) [Compound 303], the log partition coefficient (Log P) was 2.6^[a].
The same measure, in the same setting: as for `C=CCOC(=O)C(C#N)=C(NC(C)c1nccs1)c1cn(C)nc1C(F)F` (mixture of isomers) [Compound 305], the figure is 2.59^[a]; as for `C=CCOC(=O)C(C#N)=C(NC(C)c1ccccn1)c1cn(C)nc1C(F)F` (mixture of isomers) [Compound 307], 2.56^[a]; as for `CCOC(=O)C(C#N)=C(NC(C)c1nccs1)c1c(C(F)(F)F)nn(C)c1F` (mixture of isomers) [Compound 308], 3.09^[a].
Same read-out and setting: as for `CCOC(=O)C(C#N)=C(NC(C)c1nccs1)c1c(C(F)F)nn(C)c1F` (mixture of isomers) [Compound 309], the figure is 2.73^[a]; as for `CCOC(=O)C(C#N)=C(NC(C)c1ccccn1)c1c(C(F)(F)F)nn(C)c1F` (mixture of isomers) [Compound 310], 3.12^[a]; as for `CCOC(=O)C(C#N)=C(NC(C)c1ccc(F)cc1)c1sccc1C(F)(F)F` (mixture of isomers) [Compound 438], 4.14^[a].
`CCOC(=O)C(C#N)=C(NC(C)c1ccc(C)cc1)c1sccc1C(F)(F)F` (mixture of isomers) [Compound 439]: the “Log P” value is 4.54^[a].
As to `CCOC(=O)C(C#N)=C(NC(C)c1ccccc1)c1sccc1C(F)(F)F` (mixture of isomers) [Compound 440], the “Log P” value is 4.16^[a].
With `COC(=O)C(C#N)=C(NC(C)CCc1ccccc1)c1sc(C)nc1C(F)(F)F` (mixture of isomers) [Compound 441], the “Log P” value was 4.01^[a].
For `COC(=O)C(C#N)=C(NC(C)c1ccc(F)cc1)c1sc(C)nc1C(F)(F)F` (mixture of isomers) [Compound 442], the “Log P” value is 3.64^[a].
On to `COC(=O)C(C#N)=C(NC(C)c1ccc(C)cc1)c1sc(C)nc1C(F)(F)F` (mixture of isomers) [Compound 443], for which the “Log P” value is 4.01^[a].
The same measure, in the same setting: as for `COC(=O)C(C#N)=C(NC(C)c1ccccc1)c1sc(C)nc1C(F)(F)F` (mixture of isomers) [Compound 444], the figure is 3.62^[a].
Same read-out and setting: as for `CCOC(=O)C(C#N)=C(NC(C)CCc1ccccc1)c1sccc1Br` (mixture of isomers) [Compound 445], the figure is 4.51^[a]; as for `CCOC(=O)C(C#N)=C(NC(C)c1ccc(F)cc1)c1sccc1Br` (mixture of isomers) [Compound 446], 4.06^[a]; as for `CCOC(=O)C(C#N)=C(NC(C)c1ccc(C)cc1)c1sccc1Br` (mixture of isomers) [Compound 447], 4.49^[a].
Turning to `CCOC(=O)C(C#N)=C(NC(C)c1ccccc1)c1sccc1Br` (mixture of isomers) [Compound 448], the log partition coefficient (Log P) was 4.09^[a].
Same read-out and setting: as for `CCOC(=O)C(C#N)=C(NC(C)CCc1ccccc1)c1sc(C)nc1C(F)(F)F` (mixture of isomers) [Compound 449], the figure is 4.36^[a]; as for `CCOC(=O)C(C#N)=C(NC(C)c1ccc(F)cc1)c1sc(C)nc1C(F)(F)F` (mixture of isomers) [Compound 450], 3.96^[a].
Still for that read-out and setting: as for `CCOC(=O)C(C#N)=C(NC(C)c1ccc(C)cc1)c1sc(C)nc1C(F)(F)F` (mixture of isomers) [Compound 451], the figure is 4.36^[a].
With `CCOC(=O)C(C#N)=C(NC(C)c1ccccc1)c1sc(C)nc1C(F)(F)F` (mixture of isomers) [Compound 452], the “Log P” value is 3.99^[a].
As for `CCOC(=O)C(C#N)=C(NC(C)CCc1ccccc1)c1cn(C)nc1C(F)F` (mixture of isomers) [Compound 453], the “Log P” value is 3.62^[a].
As to `CCOC(=O)C(C#N)=C(NC(C)c1ccc(F)cc1)c1cn(C)nc1C(F)F` (mixture of isomers) [Compound 454], the “Log P” value was 3.21^[a].
On to `CCOC(=O)C(C#N)=C(NC(C)c1ccc(C)cc1)c1cn(C)nc1C(F)F` (mixture of isomers) [Compound 455], for which the log partition coefficient (Log P) was 3.51^[a].
For the compound `CCOC(=O)C(C#N)=C(NC(C)c1ccccc1)c1cn(C)nc1C(F)F` (mixture of isomers) [Compound 456], the lipophilicity (Log P) is 3.17^[a].
For the compound `CCOC(=O)C(C#N)=C(NC(C)c1ccc(Cl)cc1)c1cn(C)nc1C(C)F` (mixture of isomers) [Compound 520], the log partition coefficient (Log P) was 3.64^[a].
As to `CC(C)C(C)NC(=C(C#N)C(=O)NC1CC1(C)C)c1cccnc1Cl` (mixture of isomers) [Compound 1495], the log partition coefficient (Log P) was 3.72^[a].

The same data set, now with this note: pH 7.5.
For `CC(NC(=C(C#N)C(=O)OC(C)C(F)(F)F)c1cccnc1Cl)c1nccs1` (mixture of isomers) [Compound 56], the “Log P” value is listed as 2.94.
Consider `CCOC(=O)C(C#N)=C(NC(C)c1nc(C(=O)N(C)C)cs1)c1cccnc1Cl` (mixture of isomers) [Compound 304], for which the “Log P” value was 2.08.
The same measure, in the same setting: as for `CCOC(=O)C(C#N)=C(NC(C)CCc1c(Cl)cccc1Cl)c1cccnc1Cl` (mixture of isomers) [Compound 429], the figure is 4.62.
Turning to `CCOC(=O)C(C#N)=C(NC(C)CSC)c1ccc(C)nc1Cl` (mixture of isomers) [Compound 633], the lipophilicity (Log P) is reported as 3.09.
On to `CCOC(=O)C(C#N)=C(NC(C)C(F)(F)F)c1cccnc1Cl` (mixture of isomers) [Compound 806], for which the “Log P” value worked out at 2.9.
On the same count and under the same terms, the value for `C=CCOC(=O)C(C#N)=C(NC(C)C1CC1)c1cccnc1Cl` (mixture of isomers) [Compound 906] was 3.08; that for `CCOC(=O)C(C#N)=C(NC(C)C1CC1)c1cccnc1Cl` (mixture of isomers) [Compound 913] was 2.9; that for `CCOC(=O)C(C#N)=C(NC(C)C1CC1)c1ccc(Cl)nc1Cl` (mixture of isomers) [Compound 914] was 3.54.
Consider `COC(=O)C(C#N)=C(NC(C)C(C)(C)C)c1cccnc1Cl` (mixture of isomers) [Compound 916], for which the log partition coefficient (Log P) came out at 3.14.
Turning to `CCOC(=O)C(C#N)=C(NC1CCCCC1O)c1cccnc1Cl` (mixture of isomers) [Compound 1064], the lipophilicity (Log P) is 2.27.
Still for that read-out and setting: the value for `CC(NC(=C(C#N)C(=O)OC1CCC1)c1cccnc1Cl)C1CC1` (mixture of isomers) [Compound 1245] was 3.46; that for `COC(=O)C(C#N)=C(NC(C)C1CC1)c1cccnc1Cl` (mixture of isomers) [Compound 1307] was 2.58.
The same measure, in the same setting: as for `CCOC(=O)C(C#N)=C(NC(C)C=NOC)c1cccnc1Cl` (mixture of isomers) [Compound 1322], the figure is 2.49.
